# Patent publication US20260223848A1, “METHOD OF INCREASING SUGAR PRODUCTION FROM SUGARCANE” (CORTEVA AGRISCIENCE LLC, priority 2021, published 2026)
# Experiments:
# Assay type in all cases: in vivo
# [1] = test system: sugarcane; assay: Sugarcane ripening field studies, florpyrauxifen-benzyl and haloxyfop-P-methyl; settings: for ripening performance: versus the standards trinexapac and sulfometuron
# [2] = test system: sugarcane; assay: Sugarcane ripening field studies, halauxifen-methyl plus haloxyfop-P-methyl; settings: six field studies, 30 days after application, rate g ai/ha: halauxifen-methyl 2.16, mixture 27 + 2.16, haloxyfop-P-methyl 27, sulfometuron 15, trinexapac 250; for Gain Fiber: untreated 0.5; for Gain POL: untreated 2.7; for Gain Purity: untreated 6.8; for Gain TRS: untreated 23.4
# [3] = test system: ratoon sugarcane; assay: Ratoon sugarcane control field studies; settings: for % Control: post application, 4 to 6 leaves, 50 to 60 cm
# Experimental: In order to study the activity of Haloxyfop-P-methyl as possible herbicide for ratoon sugarcane control, field studies were carried out. Haloxyfop-P-methyl was tested at 124; 248; 373; 620 and 1240 g ai/ha plus mineral oil at 0.5% v/v and compared to key standard, as glyphosate (Glizmax Prime®) at 2160 g ae/ha. Trials were sprayed postemergence with 4 to 6 leaves or 50 to 60 cm of ratoon sugarcane regrowth and assessed percentage of control at 14; 30; 45 and 60 days after application (DAA).
# [4] = 30 days after application, rate g ai/ha: haloxyfop-P-methyl 27, florpyrauxifen-benzyl 2.2, mixture 27 + 2.2, sulfometuron 15, trinexapac 250, untreated 0.6
# [5] = 30 days after application, rate g ai/ha: haloxyfop-P-methyl 27, florpyrauxifen-benzyl 2.2, mixture 27 + 2.2, sulfometuron 15, trinexapac 250, untreated 2.8
# [6] = 30 days after application, rate g ai/ha: haloxyfop-P-methyl 27, florpyrauxifen-benzyl 2.2, mixture 27 + 2.2, sulfometuron 15, trinexapac 250, untreated 7.2
# [7] = 30 days after application, rate g ai/ha: haloxyfop-P-methyl 27, florpyrauxifen-benzyl 2.2, mixture 27 + 2.2, sulfometuron 15, trinexapac 250, untreated 25.2
# [8] = 45 days after application, rate g ai/ha: haloxyfop-P-methyl 27, florpyrauxifen-benzyl 2.2, mixture 27 + 2.2, sulfometuron 15, trinexapac 250, untreated 1.2
# [9] = 45 days after application, rate g ai/ha: haloxyfop-P-methyl 27, florpyrauxifen-benzyl 2.2, mixture 27 + 2.2, sulfometuron 15, trinexapac 250, untreated 4.2
# [10] = 45 days after application, rate g ai/ha: haloxyfop-P-methyl 27, florpyrauxifen-benzyl 2.2, mixture 27 + 2.2, sulfometuron 15, trinexapac 250, untreated 7.7
# [11] = 45 days after application, rate g ai/ha: haloxyfop-P-methyl 27, florpyrauxifen-benzyl 2.2, mixture 27 + 2.2, sulfometuron 15, trinexapac 250, untreated 38.4
# [12] = single application 50 L/ha 60 days before harvest, 30 DAA, rate g ai/ha: florpyrauxifen-benzyl 2.2, sulfometuron 15, trinexapac 250, untreated 2.8
# [13] = single application 50 L/ha 60 days before harvest, 30 DAA, rate g ai/ha: florpyrauxifen-benzyl 2.2, sulfometuron 15, trinexapac 250, untreated 7.2
# [14] = single application 50 L/ha 60 days before harvest, 30 DAA, rate g ai/ha: florpyrauxifen-benzyl 2.2, sulfometuron 15, trinexapac 250, untreated 25.2
# [15] = single application 50 L/ha 60 days before harvest, 45 DAA, rate g ai/ha: florpyrauxifen-benzyl 2.2, sulfometuron 15, trinexapac 250, untreated 4.2
# [16] = single application 50 L/ha 60 days before harvest, 45 DAA, rate g ai/ha: florpyrauxifen-benzyl 2.2, sulfometuron 15, trinexapac 250, untreated 7.7
# [17] = single application 50 L/ha 60 days before harvest, 45 DAA, rate g ai/ha: florpyrauxifen-benzyl 2.2, sulfometuron 15, trinexapac 250, untreated 38.4
# [18] = 14.5 g ai/ha, single application 50 L/ha 60 days before harvest, 30 DAA
# [19] = 14.5 g ai/ha, single application 50 L/ha 60 days before harvest, 45 DAA
# [20] = 50 g ai/ha, single application 50 L/ha 60 days before harvest, 30 DAA
# [21] = 50 g ai/ha, single application 50 L/ha 60 days before harvest, 45 DAA
# [22] = 100 g ai/ha, single application 50 L/ha 60 days before harvest, 30 DAA
# [23] = 100 g ai/ha, single application 50 L/ha 60 days before harvest, 45 DAA
smiles,measurement,setting,value
"COc1c(Cl)ccc(-c2nc(C(=O)OCc3ccccc3)c(Cl)c(N)c2F)c1F [Florpyrauxifen-benzyl, florpyrauxifen-benzyl]",Gain Fiber,[1]; [4],0.5%
same,Gain POL,[1]; [5],2.6%
same,Gain Purity,[1]; [6],7.5%
same,Gain TRS,[1]; [7],23.0 kg/ton
same,Gain Fiber,[1]; [8],1.5%
same,Gain POL,[1]; [9],4.9%
same,Gain Purity,[1]; [10],10.3%
same,Gain TRS,[1]; [11],44.0 kg/ton
same,ripening performance,[1]; at 30 DAA,comparable to the standards trinexapac and sulfometuron
same,ripening performance,[1]; at 45 DAA,unexpectedly superior to the standards
same,Gain POL,[1]; [12],2.6%
same,Gain Purity,[1]; [13],7.5%
same,Gain TRS,[1]; [14],23.0 kg/ton
same,Gain POL,[1]; [15],4.9%
same,Gain Purity,[1]; [16],10.3%
same,Gain TRS,[1]; [17],44.0 kg/ton
"CCOC(=O)C1CC(=O)C(=C(O)C2CC2)C(=O)C1 (stereo not drawn) [Trinexapac, trinexapac-ethyl]",Gain Fiber,[1]; [4],0.4%
same,Gain POL,[1]; [5],2.9%
same,Gain Purity,[1]; [6],6.8%
same,Gain TRS,[1]; [7],25.8 kg/ton
same,Gain Fiber,[1]; [8],0.8%
same,Gain POL,[1]; [9],3.8%
same,Gain Purity,[1]; [10],5.8%
same,Gain TRS,[1]; [11],34.9 kg/ton
same,Gain POL,[1]; [12],2.9%
same,Gain Purity,[1]; [13],6.8%
same,Gain TRS,[1]; [14],25.0 kg/ton
same,Gain POL,[1]; [15],3.8%
same,Gain Purity,[1]; [16],5.8%
same,Gain TRS,[1]; [17],34.9 kg/ton
same,Gain Fiber,[2],0.4%
same,Gain POL,[2],2.5%
same,Gain Purity,[2],5.8%
same,Gain TRS,[2],21.8 kg/ton
"COC(=O)[C@@H](C)Oc1ccc(Oc2ncc(C(F)(F)F)cc2Cl)cc1 [Haloxyfop-P-methyl, haloxyfop-P-methyl]",% Control,"[3]; 124 g ai/ha, 14 DAA",60.5%
same,% Control,"[3]; 124 g ai/ha, 30 DAA",86.5%
same,% Control,"[3]; 124 g ai/ha, 45 DAA",91.5%
same,% Control,"[3]; 124 g ai/ha, 60 DAA",89.8%
same,% Control,"[3]; 248 g ai/ha, 14 DAA",67.2%
same,% Control,"[3]; 248 g ai/ha, 30 DAA",88.7%
same,% Control,"[3]; 248 g ai/ha, 45 DAA",92.0%
same,% Control,"[3]; 248 g ai/ha, 60 DAA",90.8%
same,% Control,"[3]; 373 g ai/ha, 14 DAA",68.3%
same,% Control,"[3]; 373 g ai/ha, 30 DAA",91.0%
same,% Control,"[3]; 373 g ai/ha, 45 DAA",93.5%
same,% Control,"[3]; 373 g ai/ha, 60 DAA",92.2%
same,% Control,"[3]; 620 g ai/ha, 14 DAA",71.8%
same,% Control,"[3]; 620 g ai/ha, 30 DAA",94.7%
same,% Control,"[3]; 620 g ai/ha, 45 DAA",95.2%
same,% Control,"[3]; 620 g ai/ha, 60 DAA",94.8%
same,% Control,"[3]; 1240 g ai/ha, 14 DAA",74.5%
same,% Control,"[3]; 1240 g ai/ha, 30 DAA",95.2%
same,% Control,"[3]; 1240 g ai/ha, 45 DAA",96.3%
same,% Control,"[3]; 1240 g ai/ha, 60 DAA",95.5%
same,ratoon sugarcane control,[3]; rates from 373 to 1240 g ai/ha at 30 DAA,more than 90%
same,Gain POL,[1]; [18],3.3%
same,Gain Purity,[1]; [18],13.0%
same,Gain TRS,[1]; [18],27.8 kg/ton
same,Gain POL,[1]; [19],6.7%
same,Gain Purity,[1]; [19],18.3%
same,Gain TRS,[1]; [19],49.6 kg/ton
same,Gain POL,[1]; [20],2.8%
same,Gain Purity,[1]; [20],8.1%
same,Gain TRS,[1]; [20],23.7 kg/ton
same,Gain POL,[1]; [21],4.4%
same,Gain Purity,[1]; [21],10.3%
same,Gain TRS,[1]; [21],39.9 kg/ton
same,Gain POL,[1]; [22],3.2%
same,Gain Purity,[1]; [22],7.2%
same,Gain TRS,[1]; [22],28.6 kg/ton
same,Gain POL,[1]; [23],4.0%
same,Gain Purity,[1]; [23],8.8%
same,Gain TRS,[1]; [23],36.7 kg/ton
same,Gain Fiber,[1]; [4],0.4%
same,Gain POL,[1]; [5],2.6%
same,Gain Purity,[1]; [6],6.1%
same,Gain TRS,[1]; [7],23.7 kg/ton
same,Gain Fiber,[1]; [8],0.1%
same,Gain POL,[1]; [9],4.4%
same,Gain Purity,[1]; [10],10.3%
same,Gain TRS,[1]; [11],39.9 kg/ton
same,Gain Fiber,[2],0.7%
same,Gain POL,[2],2.9%
same,Gain Purity,[2],6.6%
same,Gain TRS,[2],24.7 kg/ton
"O=C(O)CNCP(=O)(O)O [Glyphosate, glyphosate]",% Control,"[3]; 2160 g ai/ha, 14 DAA",84.5%
same,% Control,"[3]; 2160 g ai/ha, 30 DAA",89.3%
same,% Control,"[3]; 2160 g ai/ha, 45 DAA",95.7%
same,% Control,"[3]; 2160 g ai/ha, 60 DAA",96.0%
"COC(=O)c1ccccc1S(=O)(=O)NC(=O)Nc1nc(C)cc(C)n1 [Sulfometuron, sulfometuron-methyl]",Gain Fiber,[1]; [4],0.6%
same,Gain POL,[1]; [5],2.4%
same,Gain Purity,[1]; [6],6.5%
same,Gain TRS,[1]; [7],21.3 kg/ton
same,Gain Fiber,[1]; [8],0.6%
same,Gain POL,[1]; [9],3.6%
same,Gain Purity,[1]; [10],10.9%
same,Gain TRS,[1]; [11],31.4 kg/ton
same,Gain POL,[1]; [12],2.4%
same,Gain Purity,[1]; [13],6.5%
same,Gain TRS,[1]; [14],21.3 kg/ton
same,Gain POL,[1]; [15],3.6%
same,Gain Purity,[1]; [16],10.9%
same,Gain TRS,[1]; [17],31.4 kg/ton
same,Gain Fiber,[2],0.1%
same,Gain POL,[2],1.9%
same,Gain Purity,[2],1.9%
same,Gain TRS,[2],15.9 kg/ton
"COC(=O)c1nc(-c2ccc(Cl)c(OC)c2F)cc(N)c1Cl [Halauxifen-methyl, halauxifen-methyl]",Gain Fiber,[2],0.5%
same,Gain POL,[2],3%
same,Gain Purity,[2],7.1%
same,Gain TRS,[2],25.4 kg/ton
